Legend:
[1] = NaOCl obtained during the electrolysis compared with HCl; cited from earlier work
[2] = tested on: Acartia spp.(Copepoda); test: Influence density of NaOCl in electrolyzed water on marine ecosystem; type: in vivo
Procedure: (§1) In the meantime, according to the present invention, marine microorganisms are effectively killed. Influence density for most of organisms in the seawater by electrolyzed water is shown on Table 1 below. As a result of performing the present invention, it has been checked by a natural eye that organisms causing red tide is completely eliminated within 1-2 minutes after spreading of the electrolyzed water. A density of Cochlodinium which has been a population of 7-8 thousand/ml in an actual relevant sea area has approached almost zero after four hours elapse, showing high relief efficiency. If the NaOCl component density required by the electrolyzed water is controlled, complete elimination of marine microorganisms is achieved.

[3] = tested on: Oxyrrhis marina; test: as above; type: in vivo; conditions: Protista
Procedure: as §1

[4] = tested on: Barnacle larva; test: as above; type: in vivo; conditions: Benthic fauna larva
Procedure: as §1

[5] = tested on: Adult benthic fauna: Tapes philippinarum, Giant pacific oyster, Pachygrapsus crassipes; test: as above; type: in vivo
Procedure: as §1

[6] = tested on: Polykrikos kofodidii; test: as above; type: in vivo; conditions: Protista
Procedure: as §1

[7] = tested on: Artemia larva(Kugenumaenis); test: as above; type: in vivo; conditions: Benthic fauna larva
Procedure: as §1

[8] = tested on: Pseudodiaptomus spp.(Copepoda); test: as above; type: in vivo; conditions: Zooplankton
Procedure: as §1

[9] = tested on: Seaweeds spore: Borphyra seriata, Ulva pertusa, Brown seaweed; test: as above; type: in vivo
Procedure: as §1

[10] = tested on: Fish: Bastard halibut fry, sebastes schlegeli fry; test: as above; type: in vivo
Procedure: as §1

[11] = tested on: Adult seaweeds: Borphyra seriata, Ulva pertusa; test: as above; type: in vivo
Procedure: as §1

[12] = tested on: Strombidinopsis sp; test: as above; type: in vivo; conditions: Protista
Procedure: as §1

## [Na+].[O-]Cl [NaOCl]
[1]
  Insecticide and sterilizing effects relative to HCl: about 1.4 times
[2]
  Influence density: 2.0 ppm
[3]
  Influence density: 0.3 ppm
[4]
  Influence density: 50 ppm
[5]
  Influence density: 20 or more ppm
[6]
  Influence density: 0.75-1.0 ppm
[7]
  Influence density: 30-50 ppm
[8]
  Influence density: 10-20 ppm
[9]
  Influence density: 0.1-0.3 ppm
[10]
  Influence density: 2-5 ppm
[11]
  Influence density: 1.0-1.5 ppm
[12]
  Influence density: 0.75-1.0 ppm

Source: US20070158208A1, “Apparatus and methods for treating ballast water by using electrolysis of natural seawater” (Research Institute of Industrial Science & Technology, priority 2003, published 2007)
